Values quoted from earlier work as cited in PMC3035168 (Chemistry & biology, 2010).
Residues, ends and D or L forms follow the SMILES beside them. *: point of attachment. Cbz = O=C(OCc1ccccc1)*; CH2F = FC*

Key:
[1] = mouse, in vivo
[2] = tested on: HD transgenic mouse models; details: ref Chen et al., 2000
striatal neurons = details: ref Schulz et al., 1998

Structure (SMILES): C[C@H](NC(=O)C(=O)Nc1ccccc1C(C)(C)C)C(=O)N[C@@H](CC(=O)O)C(=O)COc1c(F)c(F)cc(F)c1F [IDN-6556]
- toxicity [1]: nontoxic

Structure (SMILES): CN(C)c1ccc(O)c2c1C[C@H]1C[C@H]3[C@H](N(C)C)C(O)=C(C(N)=O)C(=O)[C@@]3(O)C(O)=C1C2=O [minocycline]
- effect on cell death ([2]; HD transgenic mouse models): delays cell death
- effect on caspase-1 and caspase-3 transcription ([2]; through indirect means): inhibits caspase-1 and caspase-3 transcriptional upregulation

Structure (SMILES): COC(=O)C[C@H](NC(=O)[C@H](C)NC(=O)[C@@H](NC(=O)OCc1ccccc1)C(C)C)C(=O)CF [zVAD-fmk] (Cbz-Val-Ala-Asp(OMe)-CH2F)
- protection against malonate-induced excitoxicity (striatal neurons): protected striatal neurons
